ChEMBL document CHEMBL3046270, “Bleaching herbicide norflurazon inhibits phytoene desaturase by competition with the cofactors” (J Agric Food Chem, 2001)
The source made the active and inactive calls.

How the values were obtained:
[1] = biological target: 15-cis-phytoene desaturase (Synechococcus elongatus (strain PCC 7942) (Anacystis nidulans R2)) (UniProt P26294); assay: Competitive inhibition of Synechococcus phytoene desaturase using decyl plastoquinone as cofactor and phytoene as substrate at 0.1 uM after 2 hr by double reciprocal plot analysis
Sequence of 15-cis-phytoene desaturase (Synechococcus elongatus (strain PCC 7942) (Anacystis nidulans R2)) (P26294 whole entry): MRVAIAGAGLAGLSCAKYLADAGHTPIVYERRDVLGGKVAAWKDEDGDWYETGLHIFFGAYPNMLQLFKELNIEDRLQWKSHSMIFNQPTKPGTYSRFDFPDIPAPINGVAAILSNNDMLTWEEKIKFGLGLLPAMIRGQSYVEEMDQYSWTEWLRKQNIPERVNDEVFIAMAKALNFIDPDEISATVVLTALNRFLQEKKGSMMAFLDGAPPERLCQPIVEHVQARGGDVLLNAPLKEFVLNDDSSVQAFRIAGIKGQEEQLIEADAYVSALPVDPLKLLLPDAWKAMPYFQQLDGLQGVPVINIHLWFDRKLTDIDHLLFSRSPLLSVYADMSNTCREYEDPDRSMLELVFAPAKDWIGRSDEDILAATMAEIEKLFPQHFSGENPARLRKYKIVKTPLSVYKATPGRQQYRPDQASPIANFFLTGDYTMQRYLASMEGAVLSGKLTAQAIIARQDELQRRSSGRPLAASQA

[2] = biological target: 15-cis-phytoene desaturase (Synechococcus elongatus (strain PCC 7942) (Anacystis nidulans R2)) (UniProt P26294); assay: Competitive inhibition of Synechococcus phytoene desaturase using NADP as cofactor and phytoene as substrate at 0.1 uM after 2 hr by double reciprocal plot analysis
[3] = biological target: Phytoene desaturase (Gentiana lutea) (UniProt Q8W433); assay: Competitive inhibition of Gentiana lutea desaturase using decyl plastoquinone as cofactor and phytoene as substrate at 0.1 uM after 2 hr by double reciprocal plot analysis
Sequence of Phytoene desaturase (Gentiana lutea) (Q8W433 as listed by the source): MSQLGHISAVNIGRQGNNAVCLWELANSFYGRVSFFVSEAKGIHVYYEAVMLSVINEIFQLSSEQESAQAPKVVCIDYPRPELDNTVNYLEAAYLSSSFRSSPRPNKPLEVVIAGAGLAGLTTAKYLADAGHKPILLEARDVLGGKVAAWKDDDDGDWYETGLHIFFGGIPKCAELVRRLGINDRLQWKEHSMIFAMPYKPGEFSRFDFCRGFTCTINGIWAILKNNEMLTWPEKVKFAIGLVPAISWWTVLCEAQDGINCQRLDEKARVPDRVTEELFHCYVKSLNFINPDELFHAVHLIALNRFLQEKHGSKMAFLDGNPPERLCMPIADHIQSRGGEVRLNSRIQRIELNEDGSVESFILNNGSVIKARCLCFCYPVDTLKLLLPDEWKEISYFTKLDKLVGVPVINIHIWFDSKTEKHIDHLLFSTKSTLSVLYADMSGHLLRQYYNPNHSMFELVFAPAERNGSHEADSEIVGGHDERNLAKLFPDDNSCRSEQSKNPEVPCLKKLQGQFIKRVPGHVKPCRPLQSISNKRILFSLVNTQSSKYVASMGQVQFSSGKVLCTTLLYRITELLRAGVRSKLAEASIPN

Measured: inhibition

CNc1cnn(-c2cccc(C(F)(F)F)c2)c(=O)c1Cl
active: all assays above
